Entries after “also recorded” stand apart in the source; their conditions may differ. Where two headings read alike, the source gives them in different places.
Columns and labels:
[1] = system: thrombin induced fibrin network formation in normal human plasma; test: Clotting assay: thrombin clotting time (TCT); assay type: biochemical
Procedure: (§1) Clotting assays. All clotting times were measured using an Amelung coagulometer. Activated partial thromboplastin time (aPTT) was measured by incubating the peptides diluted in sterile water at the indicated concentrations, with 100 μL citrated human plasma for 1 minute followed by the addition of 100 μL aPTT reagent (aPTT Automate, Diagnostica Stago) for 60 seconds at 37° C. Clotting was initiated by the addition of 100 μL of a 25-mM CaCl2 solution. In the prothombrin time assay (PT), clotting was initiated by the addition of 100 μL Thrombomax with calcium (PT reagent; Sigma-Aldrich). For measuring the thrombin clotting time (TCT), clotting was initiated by the addition of 100 μL Accuclot thrombin time reagent (TCT reagent; Sigma-Aldrich).

[2] = system: E. coli; test: Viable count analysis, E. coli; assay type: cell-based, Escherichia coli; conditions: for antibacterial activity (cfu) / bactericidal activity in presence of human plasma: 10 mM Tris; for antibacterial activity (cfu): pH 7.4 buffer, dose-response (FIG. 34C); for bactericidal activity in presence of human plasma: 0.15 M NaCl, pH 7.4 with 20% human citrate plasma, versus buffer; for bactericidal activity in heat-inactivated plasma: 20% heat-inactivated human citrate plasma
Procedure: Viable count analysis. E. coli ATCC 25922 bacteria were grown to mid-logarithmic phase in Todd-Hewitt (TH) medium. Bacteria were washed and diluted in 10 mM Tris, pH 7.4 containing 5 mM glucose. E. coli ATCC 25922 (50 μl; 2×10^6 cfu/ml) were incubated, at 37° C. for 2 h with peptides at the indicated concentrations. Other experiments with the TFPI-peptides and LL-37 were performed in 10 mM Tris, pH 7.4, containing also 0.15 M NaCl, with normal or heat inactivated 20% citrate-plasma (PP). Serial dilutions of the incubation mixture were plated on TH agar, followed by incubation at 37° C. overnight and cfu determination.
(§2) Viable count analysis—E. coli strains were grown to mid-logarithmic phase in Todd-Hewitt (TH). P. aeruginosa strains were grown in TH overnight. Bacteria were washed and diluted in 10 mM Tris, pH 7.4 containing 5 mM glucose. 2×10^6 cfu/ml bacteria were incubated in 50 μl, at 37° C. for 2 h with the C-terminal TFPI-derived peptides GGL27, TKR22, or LIK17 at the indicated concentrations. Additional experiments were performed in 10 mM Tris, pH 7.4, containing 0.15 M NaCl, either alone or with 20% normal or heat inactivated citrate-plasma. Serial dilutions of the incubation mixture were plated on TH agar, followed by incubation at 37° C. overnight and cfu determination.

[3] = system: extrinsic pathway of coagulation in normal human plasma; test: Clotting assay: prothrombin time (PT); assay type: biochemical
Procedure: as §1

[4] = system: intrinsic pathway of coagulation in normal human plasma; test: Clotting assay: activated partial thromboplastin time (aPTT); assay type: biochemical
Procedure: as §1

[5] = Liposome leakage assay (carboxyfluorescein release); conditions: for CF release from liposomes: 10 mM Tris-buffer; for share of the maximal CF release: within 5-10 minutes, 1 μM of peptides
Text: Liposome preparation and leakage assay. The liposomes investigated were either zwitterionic (DOPC/cholesterol 60/40 mol/mol or DOPC without cholesterol) or anionic (DOPE/DOPG 75/25 mol/mol). DOPG (1,2-Dioleoyl-sn-Glycero-3-Phosphoglycerol, monosodium salt), DOPC (1,2-dioleoyl-sn-Glycero-3-phosphocholine), and DOPE (1,2-dioleoyl-sn-Glycero-3-phosphoetanolamine) were all from Avanti Polar Lipids (Alabaster, USA) and of >99% purity, while cholesterol (>99% purity), was from Sigma-Aldrich (St. Louis, USA). Due to the long, symmetric and unsaturated acyl chains of these phospholipids, several methodological advantages are reached. In particular, membrane cohesion is good, which facilitates very stable, unilamellar, and largely defect-free liposomes (observed from cryo-TEM) and well defined supported lipid bilayers (observed by ellipsometry and AFM), allowing detailed values on leakage and adsorption density to be obtained. The lipid mixtures were dissolved in chloroform, after which solvent was removed by evaporation under vacuum overnight. Subsequently, 10 mM Tris buffer, pH 7.4, was added together with 0.1 M carboxyfluorescein (CF) (Sigma, St. Louis, USA). After hydration, the lipid mixture was subjected to eight freeze-thaw cycles consisting of freezing in liquid nitrogen and heating to 60° C. Unilamellar liposomes of about Ø140 nm were generated by multiple extrusions through polycarbonate filters (pore size 100 nm) mounted in a LipoFast miniextruder (Avestin, Ottawa, Canada) at 22° C. Untrapped CF was removed by two subsequent gel filtrations (Sephadex G-50, GE Healthcare, Uppsala, Sweden) at 22° C., with Tris buffer as eluent. CF release from the liposomes was determined by monitoring the emitted fluorescence at 520 nm from a liposome dispersion (10 mM lipid in 10 mM Tris, pH 7.4). An absolute leakage scale was obtained by disrupting the liposomes at the end of each experiment through addition of 0.8 mM Triton X-100 (Sigma-Aldrich, St. Louis, USA). A SPEX-fluorolog 1650 0.22-m double spectrometer (SPEX Industries, Edison, USA) was used for the liposome leakage assay in Tris buffer in the absence and presence of liposomes under conditions described above. Measurements were performed in triplicate at 37° C.
Liposome preparation and leakage assay—The liposomes investigated were anionic (DOPE/DOPG 75125 mol/mol). DOPG (1,2-Dioleoyl-sn-Glycero-3-Phosphoglycerol, monosodium salt) and DOPE (1,2-dioleoyl-sn-Glycero-3-phoshoetanolamine) were both from Avanti Polar Lipids (Alabaster, USA) and of >99% purity. […] CF release from the liposomes was determined by monitoring the emitted fluorescence at 520 nm from a liposome dispersion (10 µM lipid in 10 mM Tris, pH 7.4). […]

[6] = system: P. aeruginosa; test: Viable count analysis, P. aeruginosa; assay type: cell-based, Pseudomonas aeruginosa; conditions: for killing in human plasma compared with physiological buffer: 20% human citrate plasma
Procedure: as §2

Sequence: GGLIKTKRKRKKQRVKIAYEEIFVKNM [GGL27, C-terminal peptide of TFPI, plasmin-generated]
- thrombin clotting time (TCT) [1]: not significantly affected
- thrombin clotting time (TCT) ([1]; listed as GGL-27): impairs coagulation in a dose dependent manner
- antibacterial activity (cfu) [2]: significant antibacterial activity
- bactericidal activity in presence of human plasma [2]: enhanced in human plasma; also recorded: significantly enhanced
- bactericidal activity in heat-inactivated plasma [2]: largely abolished in heat-inactivated plasma; also recorded: abolished the potentiation
- prothrombin time (PT) [3]: affected prothrombin time
- prothrombin time (PT) ([3]; listed as GGL-27): impairs coagulation in a dose dependent manner
- activated partial thromboplastin time (aPTT) [4]: impair the intrinsic pathway of coagulation
- activated partial thromboplastin time (aPTT) ([4]; listed as GGL-27): impairs coagulation in a dose dependent manner
- CF release from liposomes [5]: caused CF release
- share of the maximal CF release [5]: ~80%
- potentiating effect of native plasma compared with heat-inactivated plasma [6]: less significant
- killing in human plasma compared with physiological buffer [6]: not enhanced

Sequence: LIKTKRKRKKQRVKIAY [LIK17]
- thrombin clotting time (TCT) [1]: not significantly affected
- antibacterial activity (cfu) [2]: significant antibacterial activity
- bactericidal activity in presence of human plasma [2]: significantly enhanced
- bactericidal activity in heat-inactivated plasma [2]: abolished the potentiation
- prothrombin time (PT) [3]: affected prothrombin time
- activated partial thromboplastin time (aPTT) [4]: impair the intrinsic pathway of coagulation
- CF release from liposomes [5]: caused CF release
- share of the maximal CF release [5]: ~80%
- potentiating effect of native plasma compared with heat-inactivated plasma [6]: less significant
- killing in human plasma compared with physiological buffer [6]: not enhanced
